{"source": "paper PMC4166403", "about": "(Cell, 2014)", "molecules": {"B1": {"name": "Listeria monocytogenes pyruvate carboxylase (LmPC) (enzyme)", "chain": "MNRIKKVLVANRGEIAIRVMRACTELKIKTVAIYSQEDTGSFHRYKSDEAYLVGAGKKPIDAYLDIENIIEIAKESGADAIHPGYGFLSENIEFARRCEQEGIIFVGPKSKHLDMFGDKIKAKEQALLADIPVIPGSNGPVAGIKEVEEFGEKNGYPLMIKASLGGGGRGMRVVESKEHVKESFERASSEAKAAFGNDEVYVEKCVMNPKHIEVQILGDTHGNIVHLFERDCSIQRRHQKVVEVAPCNAITSELRNRICDAAVKLMKNVDYINAGTVEFLVEGDDFYFIEVNPRVQVEHTITEMITGIDIVQSQLFIADGYALHDQLVAIPKQEDIHIHGSAIQSRITTEDPLNNFMPDTGRVDTYRSTGGFGVRLDAGNGFQGTVVTPFYDSLLVKLCTWGMTFEQATRKMRRNLIEFRIRGVKTNIPFLLNVVRHPDFASGNYNTSFIDTTPELFKFPHIRDRGTKTLRYIGNVTVNGFPGIKHRDKPVYAEPRLPKIPYGSQISPGTKQILDAKGPEGVVDWVKKQEEVLLTDTTLRDAHQSLLATRVRSKDIFQVADAMAHLLPNMFSFEMWGGATFDVAYRFLNEDPWVRLETLRKQIPNVMFQMLLRGANAVGYKNYPDNVIREFVKQSAQSGVDVFRVFDSLNWIKGMEVSIDAVREAGKVVEAAICYTGDIDDDTRTKYTIDYYKDMAKELVAQGTHILGIKDMAGLLKPQAAYRLIGELKDTVDVPIHLHTHDTSGNGIYTYAAAVSAGVDIVDVASSAMSGATSQPSMTGLYYGLVNGNRQTNLDAQNSQIINHYWEDVRHYYKDFDNALNSPQTEVYIHEMPGGQYTNLQQQAIAVGLGDRWDEVKEMYTVVNQMFGDIVKVTPSSKVVGDLALFMVQNELSEEDVYEKGDTIDFPDSVIEFFMGEIGQPYGGFPEKLQKLVLKGRTPLTDRPGALMEPVNFVDVKAELKEKMGYEPTEKDVISYILYPKVFLDYQDMINKYGDVTVLDTPTFYKGMRLGETIEVELEKGKILLIKLNSIGEPIADGTRVIYFELNGQPREINIQDMNVQSTVIARRKIDTTNPEHVGATMTGSVIQVVVKKGDSVKKGDPLLITEAMKMETTIQAPFDGEVSSIYVSDGDTIESGDLLIEVNRI", "modifications": "biotin group on the BCCP domain (position not given)"}}, "key": {"[1]": {"target": "T1, Lmo1466 (Listeria monocytogenes, UniProt Q8Y746)", "T1 sequence (Q8Y746 1-718)": "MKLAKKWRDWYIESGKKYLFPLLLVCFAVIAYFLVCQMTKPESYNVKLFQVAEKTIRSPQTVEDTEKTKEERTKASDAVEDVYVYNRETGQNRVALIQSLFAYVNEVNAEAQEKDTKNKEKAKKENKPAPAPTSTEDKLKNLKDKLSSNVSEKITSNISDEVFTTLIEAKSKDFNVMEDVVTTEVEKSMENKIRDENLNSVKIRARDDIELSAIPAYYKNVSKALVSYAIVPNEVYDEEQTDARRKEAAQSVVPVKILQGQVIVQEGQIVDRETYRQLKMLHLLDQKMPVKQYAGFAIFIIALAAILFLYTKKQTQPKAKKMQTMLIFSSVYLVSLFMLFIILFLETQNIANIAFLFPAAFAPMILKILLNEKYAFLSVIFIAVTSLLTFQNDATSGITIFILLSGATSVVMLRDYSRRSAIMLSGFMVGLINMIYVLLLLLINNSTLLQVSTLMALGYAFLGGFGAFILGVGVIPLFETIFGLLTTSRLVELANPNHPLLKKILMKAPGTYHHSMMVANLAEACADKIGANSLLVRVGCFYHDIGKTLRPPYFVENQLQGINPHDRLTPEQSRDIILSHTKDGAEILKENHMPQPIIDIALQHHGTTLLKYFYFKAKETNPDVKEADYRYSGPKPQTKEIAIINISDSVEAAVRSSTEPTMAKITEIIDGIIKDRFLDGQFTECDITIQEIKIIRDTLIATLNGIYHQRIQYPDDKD", "test": "DRaCALA with […]-c-di-AMP in E. coli lysate expressing the protein", "assay_type": "cell-based"}, "[2]": {"target": "T2, PdeA (Lmo0052) (Listeria monocytogenes, UniProt A0A0H3GCG4)", "T2 sequence (A0A0H3GCG4 1-657)": "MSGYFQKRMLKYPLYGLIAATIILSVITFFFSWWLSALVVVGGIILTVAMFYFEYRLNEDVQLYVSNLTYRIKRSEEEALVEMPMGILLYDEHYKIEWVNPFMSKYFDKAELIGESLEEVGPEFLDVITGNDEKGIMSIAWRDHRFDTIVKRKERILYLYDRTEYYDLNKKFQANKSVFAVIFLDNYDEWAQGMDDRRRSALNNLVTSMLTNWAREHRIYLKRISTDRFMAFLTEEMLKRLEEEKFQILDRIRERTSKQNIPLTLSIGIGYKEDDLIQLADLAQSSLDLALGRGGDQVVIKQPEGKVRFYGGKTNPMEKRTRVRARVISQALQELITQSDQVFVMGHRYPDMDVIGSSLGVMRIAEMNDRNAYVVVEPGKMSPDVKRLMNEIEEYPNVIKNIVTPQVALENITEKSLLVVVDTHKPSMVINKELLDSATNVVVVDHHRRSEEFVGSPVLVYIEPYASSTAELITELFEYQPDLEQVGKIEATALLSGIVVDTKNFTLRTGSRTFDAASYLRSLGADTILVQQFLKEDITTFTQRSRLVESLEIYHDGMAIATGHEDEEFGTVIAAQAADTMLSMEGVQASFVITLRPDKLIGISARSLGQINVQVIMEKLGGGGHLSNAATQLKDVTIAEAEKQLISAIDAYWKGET", "test": "DRaCALA with […]-c-di-AMP, purified recombinant protein", "assay_type": "binding"}, "[3]": {"target": "pyruvate carboxylase (LmPC) (Listeria monocytogenes, UniProt Q8Y846, Y722F)", "test": "binding titration and enzyme inhibition of purified mutant"}, "[4]": {"target": "T3, pyruvate carboxylase (LmPC) (Listeria monocytogenes, UniProt Q8Y846)", "T3 sequence (Q8Y846 1-1146)": "B1 chain", "test": "crystal structure", "assay_type": "binding"}, "[5]": {"target": "T3, pyruvate carboxylase (LmPC)", "test": "PC activity assay with nucleotide analogues", "assay_type": "biochemical"}, "[6]": {"target": "the molecule itself", "test": "crystal structure"}}}
{"molecule": "Nc1ncnc2c1ncn2[C@@H]1O[C@@H]2CO[P@@](=O)(O)O[C@H]3[C@@H](O)[C@H](n4cnc5c(N)ncnc54)O[C@@H]3CO[P@@](=O)(O)O[C@H]2[C@H]1O", "note": "[cdA, c-di-AMP]", "values": [{"measurement": "DRaCALA with 32P-c-di-AMP in E. coli lysate expressing the protein", "setting": "[1]", "value": "A significant level of binding was observed for Lmo1466 and NrdR-expressing lysates, consistent with a direct interaction with c-di-AMP"}, {"measurement": "DRaCALA with 32P-c-di-AMP, purified recombinant protein", "setting": "[2]", "value": "as well as PdeA and LmPC exhibited binding in purified form"}, {"measurement": "binding titration and enzyme inhibition of purified mutant", "setting": "[3]", "value": "binding to c-di-AMP was only observed for Y722F and none of the other amino acid variants"}, {"measurement": "Kd", "setting": "[4]", "value": "8 ± 0.2", "unit": "µM"}]}
{"molecule": "O=c1[nH]cnc2c1ncn2[C@@H]1O[C@@H]2COP(=O)(O)O[C@H]3[C@@H](O)[C@H](n4cnc5c(=O)[nH]cnc54)O[C@@H]3COP(=O)(O)O[C@H]2[C@H]1O", "note": "[c-di-IMP]", "values": [{"measurement": "PC activity assay with nucleotide analogues", "setting": "[5]", "value": "while c-di-IMP did show weak inhibitory activity"}]}
{"molecule": "B1", "values": [{"measurement": "stoichiometry N", "setting": "[6]", "value": 4}]}
